Active and inactive are the calls of the source. The rule behind the calls is not given here.
How the values were obtained:
[1] = system: Salmon testes DNA; test: Binding affinity towards salmon testes DNA; assay type: nucleic-acid assay; settings: Oncorhynchus gorbuscha
[2] = system: A2780; test: In vitro cytotoxicity for human ovarian tumor A2780 cells; assay type: functional, cell-based
[3] = system: Salmon testes DNA; test: Binding affinity towards salmon testes DNA; NA=not applicable; assay type: nucleic-acid assay; settings: Oncorhynchus gorbuscha

Row | Compound | K [1] [M⁻¹] | IC50 ([2]; Homo sapiens, A2780) [µM] | IC50 ([2]; a2780) [µM] | K [3]
1 | OCC[N+]1=C2c3ccccc3-c3ccccc3N2CC1 | 20200 | 11.7 |  | 
2 | c1ccc2c(c1)C1=NCCN1c1ccccc1-2 | 25600 | 1.56 |  | 
3 | COc1ccc2c(c[n+](C)c3c4cc5c(cc4ccc23)OCO5)c1OC [CHELERYTHRINE CHLORIDE] | 466000 | 4.63 |  | 
4 | CARBOPLATIN [listing 1 of 2 here] |  |  | 5.22 | 
5 | CARBOPLATIN [listing 2 of 2 here] |  |  |  | inactive
6 | CCCCCCCCCCCC[N+]1=C2c3ccccc3-c3ccccc3N2CC1 | 129000 | 0.087 |  | 
7 | COc1ccc(C[N+]2=C3c4ccccc4-c4ccccc4N3CC2)cc1 | 28900 | 1.53 |  | 
